# pIC50: −log10 of the molar value.
# Columns and labels:
# CK1δ = CK1δ (Homo sapiens, UniProt P48730); test: CK1δ kinase assay (Caliper LABCHIP electrophoretic separation of fluoresceinated peptide substrate and product); assay type: biochemical; conditions: 200 pM CK1δ, 50 μM ATP, 1.5 μM peptide substrate, 22 hours at room temperature
# Protocol: (§1) CK1ϵ and CK1δ Kinase Assays
# (§2) The kinase assay was performed in V-bottom 384-well plates.
# (§3) The reaction was incubated at room temperature for 22 hours and terminated by adding 45 μl of 35 mM EDTA to each sample. The reaction mixture was analyzed on the Caliper LABCHIP®3000 (Caliper, Hopkinton, Mass.) by electrophoretic separation of the unphosphorylated substrate and phosphorylated product. […] Compounds were dissolved at 10 mM in dimethylsulfoxide (DMSO) and evaluated at eleven concentrations. IC50 values were derived by non-linear regression analysis.
# CK1ϵ = CK1ϵ (Homo sapiens, UniProt P49674); test: CK1ϵ kinase assay (Caliper LABCHIP electrophoretic separation of fluoresceinated peptide substrate and product); assay type: biochemical; conditions: 200 pM CK1ϵ, 50 μM ATP, 1.5 μM peptide substrate, 22 hours at room temperature; read-out: CK1ε (IC50)
# Protocol: as §1, §2, §3
# Chain of CK1ϵ (P49674 whole entry): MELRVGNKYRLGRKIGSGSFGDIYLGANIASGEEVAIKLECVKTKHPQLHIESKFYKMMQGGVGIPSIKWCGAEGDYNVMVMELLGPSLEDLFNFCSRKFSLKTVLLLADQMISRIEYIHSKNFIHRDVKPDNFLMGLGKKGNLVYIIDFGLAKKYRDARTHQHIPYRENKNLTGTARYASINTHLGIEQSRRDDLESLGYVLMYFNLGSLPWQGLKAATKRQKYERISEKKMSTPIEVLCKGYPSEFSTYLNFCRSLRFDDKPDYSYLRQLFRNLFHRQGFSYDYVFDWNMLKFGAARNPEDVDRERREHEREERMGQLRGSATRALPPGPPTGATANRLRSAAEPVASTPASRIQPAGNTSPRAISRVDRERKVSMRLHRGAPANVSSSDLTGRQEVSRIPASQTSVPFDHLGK
# Chain of CK1δ (P48730 whole entry): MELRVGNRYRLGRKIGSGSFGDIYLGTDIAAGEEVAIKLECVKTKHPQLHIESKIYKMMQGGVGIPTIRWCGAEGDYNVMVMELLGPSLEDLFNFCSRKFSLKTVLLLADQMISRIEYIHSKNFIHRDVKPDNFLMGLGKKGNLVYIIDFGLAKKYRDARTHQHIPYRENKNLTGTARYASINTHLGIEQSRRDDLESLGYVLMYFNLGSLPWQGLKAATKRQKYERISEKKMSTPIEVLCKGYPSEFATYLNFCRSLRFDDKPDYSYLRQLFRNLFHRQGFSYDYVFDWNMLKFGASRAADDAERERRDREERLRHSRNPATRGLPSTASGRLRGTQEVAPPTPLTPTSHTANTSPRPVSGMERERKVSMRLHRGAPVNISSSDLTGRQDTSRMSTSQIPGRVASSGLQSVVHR
SMILES,pIC50 (CK1δ),pIC50 (CK1ϵ)
"O=C(Nc1cn2nc(-c3c(-c4ccc(F)cc4)nn4c3COCC4)ccc2n1)c1ccncc1 [Example 54, N-(6-(2-(4-Fluorophenyl)-6,7-dihydro-4H-pyrazolo[5,1-c][1,4]oxazin-3-yl)imidazo[1,2-b]pyridazin-2-yl)isonicotinamide]",9.52,8.59
"O=C(Nc1cn2nc(-c3c(-c4ccc(F)cc4)nn4c3COCC4)ccc2n1)c1ccnc(N2CCOCC2)c1 [Example 55, N-(6-(2-(4-Fluorophenyl)-6,7-dihydro-4H-pyrazolo[5,1-c][1,4]oxazin-3-yl)imidazo[1,2-b]pyridazin-2-yl)-2-morpholinoisonicotinamide]",9.52,8.62
"O=C(Nc1cn2nc(-c3c(-c4ccc(F)cc4)nn4c3COCC4)ccc2n1)c1cc(F)nc(F)c1 [Example 56, 2,6-Difluoro-N-(6-(2-(4-fluorophenyl)-6,7-dihydro-4H-pyrazolo[5,1-c][1,4]oxazin-3-yl)imidazo[1,2-b]pyridazin-2-yl) isonicotinamide]",9.52,8.40
"O=C(Nc1cn2nc(-c3c(-c4ccc(F)cc4)nn4c3COCC4)ccc2n1)c1ccnc(-c2cccnc2)c1 [Example 57, N-(6-(2-(4-Fluorophenyl)-6,7-dihydro-4H-pyrazolo[5,1-c][1,4]oxazin-3-yl)imidazo[1,2-b]pyridazin-2-yl)-[2,3′-bipyridine]-4-carboxamide]",9.70,8.77
"Nc1cc(C(=O)Nc2cn3nc(-c4c(-c5ccc(F)cc5)nn5c4COCC5)ccc3n2)ccn1 [Example 58, 2-Amino-N-(6-(2-(4-fluorophenyl)-6,7-dihydro-4H-pyrazolo[5,1-c][1,4]oxazin-3-yl)imidazo[1,2-b]pyridazin-2-yl) isonicotinamide]",9.70,8.57
"O=C(Nc1cn2nc(-c3c(-c4ccc(F)cc4)nn4ccccc34)ccc2n1)c1cc(F)nc(F)c1 [Example 61, 2,6-Difluoro-N-(6-(2-(4-fluorophenyl)pyrazolo[1,5-a]pyridin-3-yl)imidazo[1,2-b]pyridazin-2-yl)isonicotinamide]",7.71,6.86
"O=C(Nc1cn2nc(-c3c(-c4ccc(F)cc4)nn4c3CCCC4)ccc2n1)c1ccnc(F)c1 [Example 62, 2-Fluoro-N-(6-(2-(4-fluorophenyl)-4,5,6,7-tetrahydropyrazolo[1,5-a]pyridin-3-yl)imidazo[1,2-b]pyridazin-2-yl)isonicotinamide]",9.40,8.89
"O=C(Nc1cn2nc(-c3c(-c4ccc(F)cc4)nn4c3CCCC4)ccc2n1)c1ccncc1 [Example 63, N-(6-(2-(4-Fluorophenyl)-4,5,6,7-tetrahydropyrazolo[1,5-a]pyridin-3-yl)imidazo[1,2-b]pyridazin-2-yl) isonicotinamide]",9.52,8.92
"O=C(Nc1cn2nc(-c3c(-c4ccc(F)cc4)nn4c3CCCC4)ccc2n1)c1cc(F)nc(F)c1 [Example 64, 2,6-Difluoro-N-(6-(2-(4-fluorophenyl)-4,5,6,7-tetrahydropyrazolo[1,5-a]pyridin-3-yl)imidazo[1,2-b]pyridazin-2-yl) isonicotinamide]",9.30,8.41
"O=C(Nc1cn2nc(-c3c(-c4ccc(F)cc4)nn4c3CCC4)ccc2n1)c1ccnc(F)c1 [Example 65, 2-Fluoro-N-(6-(2-(4-fluorophenyl)-5,6-dihydro-4H-pyrrolo[1,2-b]pyrazol-3-yl)imidazo[1,2-b]pyridazin-2-yl)isonicotinamide]",9.40,8.33
"O=C(Nc1cn2nc(-c3c(-c4ccc(F)cc4)nn4c3CCC4)ccc2n1)c1cc(F)nc(F)c1 [Example 66, 2,6-Difluoro-N-(6-(2-(4-fluorophenyl)-5,6-dihydro-4H-pyrrolo[1,2-b]pyrazol-3-yl)imidazo[1,2-b]pyridazin-2-yl)isonicotinamide]",9.15,8.28
"O=C(Nc1cn2nc(-c3c(-c4ccc(F)cc4)nn4c3CCC4)ccc2n1)c1ccncc1 [Example 67, N-(6-(2-(4-Fluorophenyl)-5,6-dihydro-4H-pyrrolo[1,2-b]pyrazol-3-yl)imidazo[1,2-b]pyridazin-2-yl) isonicotinamide]",9.40,8.44
"O=C(Nc1cn2nc(-c3c(-c4ccc(F)cc4)nn4c3CCC4)ccc2n1)c1ccccc1 [Example 68, N-(6-(2-(4-Fluorophenyl)-5,6-dihydro-4H-pyrrolo[1,2-b]pyrazol-3-yl)imidazo[1,2-b]pyridazin-2-yl)benzamide]",9.52,8.44
"O=C(Nc1cn2nc(-c3c(-c4ccc(F)cc4)noc3C3CCOCC3)ccc2n1)c1ccnc(F)c1 [Example 69, 2-Fluoro-N-(6-(3-(4-fluorophenyl)-5-(tetrahydro-2H-pyran-4-yl)isoxazol-4-yl)imidazo[1,2-b]pyridazin-2-yl)isonicotinamide]",8.85,7.55
"O=C(Nc1cn2nc(-c3c(-c4ccc(F)cc4)noc3C3CCOCC3)ccc2n1)c1ccnc(N2CCOCC2)c1 [Example 70, N-(6-(3-(4-Fluorophenyl)-5-(tetrahydro-2H-pyran-4-yl)isoxazol-4-yl)imidazo[1,2-b]pyridazin-2-yl)-2-morpholinoisonicotinamide]",8.42,7.56
"O=C(Nc1cn2nc(-c3c(-c4ccc(F)cc4)noc3C3CCOCC3)ccc2n1)c1ccnc(-c2cccnc2)c1 [Example 71, N-(6-(3-(4-Fluorophenyl)-5-(tetrahydro-2H-pyran-4-yl)isoxazol-4-yl)imidazo[1,2-b]pyridazin-2-yl)-[2,3′-bipyridine]-4-carboxamide]",8.60,7.54
